This note sets out measurements from paper PMC8467595, “Protective Effects of Linearthin and Other Chalcone Derivatives from Aspalathus linearis (Rooibos) against UVB Induced Oxidative Stress and Toxicity in Human Skin Cells” (Plants, 2021).

Converted amounts (≈) assume the structure as drawn. Read-outs that look alike come from different tables or passages of the source.

For assay [1], the system named is HaCaT cells. Nature of the assay: TBARS lipid peroxidation (MDA). It is filed as cell-based, human. As to conditions: for MDA levels (lipid peroxidation): HaCaT. How it is done:
(§1) For experiments, before exposure to UVB, the cells were conditioned with various concentrations of total extract and isolated compounds thereof for 4 or 24 h. These periods were selected based on the half-life of the compounds as well as previous studies. Exposure to UVB was done according to a previous study. Cells were seeded (3 × 10^4) in 96-well tissue culture microtitre plates. Cell culture media was aspirated and the cells were overlayed with PBS. The cells were exposed to UVB light (80 mJ/cm^2) without the plastic lid. A UVIlink UV Crosslinker (UVitek Ltd., Aberdeen, UK) was fitted with six 8 Watt UV tubes giving a wavelength of 302 nm (Vilber Lourmat, Collégien, France). Control plates were not exposed to UVB light.
(§2) The thiobarbituric acid reactive substances (TBARS) was used to quantify the levels of melondialdehyde (a marker of lipid peroxidation) in the supernatant of UVB irradiated and non-irradiated cells. The experiments were conducted as previously described. The optical density was measured at 532 nm with a reference wavelength of 600 nm using a plate reader. The mean optical density of five samples per treatment was calculated and divided by the absorption coefficient (156 mM^−1). Results were expressed as MDA concentration (μM). Reduced glutathione (GSH) was quantified using an in-house protocol with minor modifications. After the addition of reagents, the cells were lysed to allow quantification of GSH colourimetrically using a plate reader.

Assay [2] has as its system HaCaT cells. Nature of the assay: ATP bioluminescent assay (Cell Titer-Glo). It is filed as cell-based, human. Particulars: for ATP vs control cell levels: 24 h pre-exposure, UVB irradiated cells. The procedure: as §1
The ATP bioluminescent assay was used to quantify cellular ATP. The Cell Titer-Glo® assay (Promega, Madison, WI, USA) was carried out according to the manufacturer’s instructions. Cells were seeded in a white microtitre plate (20,000 cells per well) to which the ATP Cell Titer-Glo® Reagent was added (50 μL). The plate was incubated for 30 min at room temperature (RT) in the dark. Luminescence was measured on a Multiskan Spectrum plate reader (Thermo Fisher Scientific, Waltham, MA, USA). Luminescence is proportional to ATP levels and expressed as relative light units (RLU).
(In ATP-based viability assays light output follows the ATP content of the culture.)

Assay [3] concerns HaCaT cells. In words: Caspase 3/7 activation (ApoTox-Glo Triplex Assay). It is filed as cell-based, human. As to conditions: UVB irradiated cells. How it is done: as §1
(§3) The ApoTox-Glo™ Triplex Assay (Promega) was used to assess cytotoxicity and apoptosis events in the same cell-based assay well according to the manufacturer’s instructions with no deviation from standard protocol. Both luminescence and fluorescence were detected using a plate reader.

Assay [4] deals with SK-MEL-1 cells. In words: Caspase 3/7 activation (ApoTox-Glo Triplex Assay). It is filed as cell-based, human. Particulars: SK-MEL-1, UVB irradiated cells. How it is done: as §1, §3
For assay [5], the system named is HaCaT cells. Nature of the assay: MTT cytotoxicity assay, pre-treatment 4 or 24 h with or without UVB irradiation. It is filed as cell-based. As to conditions: Homo sapiens, read-out: IC50 (50% inhibition of viable cell number, MTT). How it is done:
(§4) The human epidermal keratinocytes (HaCaT) and melanoma (SK-MEL-1) cells used in this study were cultured in Roswell Park Memorial Institute (RPMI) 1640 media supplemented with antibiotics (100 U/mL streptomycin, 100 U/mL penicillin) and fetal calf serum (FCS, 10%). Cells were maintained at 37 °C in a humidified atmosphere of 5% CO2.
as §1
(§5) The MTT assay has been extensively used for determining the cytoprotective effects of several phytochemicals. To monitor cell viability as a measure of metabolic activity the MTT assay was performed. The conditioned HaCat and SK-MEL-1 cells (15,000 cells per well in 96-well plates) were incubated for 2 h using 100 μL MTT solution (5 mg/mL) after PBS washing. The MTT formazan crystals were then solubilised by DMSO resuspension. The optical density of the formazan product was read at 570 nm wavelength with a reference wavelength of 690 nm. The half-maximal inhibitory concentration (IC50) was determined.
(In general: Formazan colour is commonly taken as a measure of viable cells.)

Assay [6] deals with SK-MEL-1 cells. Described as above. It is filed as cell-based. As to conditions: Homo sapiens, read-out: IC50 (50% inhibition of viable cell number, MTT). The procedure:
as §4, §1, §5

The test system of assay [7] is SK-MEL-1 cells. In words: ATP bioluminescent assay (Cell Titer-Glo). It is filed as cell-based, human. Particulars: SK-MEL-1, 10 µg/mL, 24-h pre-treatment.
Experimental: For experiments, before exposure to UVB, the cells were conditioned with various concentrations of total extract and isolated compounds thereof for 4 or 24 h. These periods were selected based on the half-life of the compounds as well as previous studies [22, 32]. Exposure to UVB was done according to a previous study. Cells were seeded (3 × 10^4) in 96-well tissue culture microtitre plates. Cell culture media was aspirated and the cells were overlayed with PBS. The cells were exposed to UVB light (80 mJ/cm^2) without the plastic lid. A UVIlink UV Crosslinker (UVitek Ltd., Aberdeen, UK) was fitted with six 8 Watt UV tubes giving a wavelength of 302 nm (Vilber Lourmat, Collégien, France) [22]. Control plates were not exposed to UVB light. The ATP bioluminescent assay was used to quantify cellular ATP. The Cell Titer-Glo® assay (Promega, Madison, WI, USA) was carried out according to the manufacturer’s instructions. Cells were seeded in a white microtitre plate (20,000 cells per well) to which the ATP Cell Titer-Glo® Reagent was added (50 μL). The plate was incubated for 30 min at room temperature (RT) in the dark. Luminescence was measured on a Multiskan Spectrum plate reader (Thermo Fisher Scientific, Waltham, MA, USA). Luminescence is proportional to ATP levels and expressed as relative light units (RLU).
For assay [8], the system named is SK-MEL-1 cells. Nature of the assay: TBARS lipid peroxidation (MDA). It is filed as cell-based, human. As to conditions: SK-MEL-1, 24-h pre-treatment, after UVB exposure.
Experimental: For experiments, before exposure to UVB, the cells were conditioned with various concentrations of total extract and isolated compounds thereof for 4 or 24 h. […] Exposure to UVB was done according to a previous study. Cells were seeded (3 × 10^4) in 96-well tissue culture microtitre plates. Cell culture media was aspirated and the cells were overlayed with PBS. The cells were exposed to UVB light (80 mJ/cm^2) without the plastic lid. A UVIlink UV Crosslinker (UVitek Ltd., Aberdeen, UK) was fitted with six 8 Watt UV tubes giving a wavelength of 302 nm (Vilber Lourmat, Collégien, France) [22]. Control plates were not exposed to UVB light. The thiobarbituric acid reactive substances (TBARS) was used to quantify the levels of melondialdehyde (a marker of lipid peroxidation) in the supernatant of UVB irradiated and non-irradiated cells. The experiments were conducted as previously described [45]. The optical density was measured at 532 nm with a reference wavelength of 600 nm using a plate reader. The mean optical density of five samples per treatment was calculated and divided by the absorption coefficient (156 mM^−1). Results were expressed as MDA concentration (μM).
The test system of assay [9] is HaCaT cells. Nature of the assay: Reduced glutathione (GSH) quantification. It is filed as cell-based, human. The procedure: as §1, §2
For assay [10], the system named is SK-MEL-1 cells. Nature of the assay: Reduced glutathione (GSH) quantification. It is filed as cell-based, human. As to conditions: SK-MEL-1 pre-treated cells. The procedure: as §1, §2
Setting [11] is: light or radiation study, UVB irradiation after pre-treatment 4 h.
[12] abbreviates: light or radiation study, UVB irradiation after pre-treatment 24 h.
The mark [13] stands for this setting: SK-MEL-1, SK-MEL-1, No UV, pre-treatment 4 h.
The mark [14] stands for this setting: SK-MEL-1, SK-MEL-1, No UV, pre-treatment 24 h.
The mark [15] stands for this setting: SK-MEL-1, light or radiation study, SK-MEL-1, UVB irradiation after pre-treatment 4 h.
[16] abbreviates: SK-MEL-1, light or radiation study, SK-MEL-1, UVB irradiation after pre-treatment 24 h.

For orientation: IC50 means the point on the concentration scale where inhibition reaches its midpoint.

Consider `O=C(CCc1ccc(O)c(O)c1)c1c(O)cc(O)c2c1OC1(C2)O[C@@H](CO)[C@H](O)[C@H]1O` (relative stereo) [Compound 1, linearthin], for which, in the assay on HaCaT cells [1] (4-h pre-treatment, UVB exposed, vs cells with no isolate intervention), the “MDA levels (lipid peroxidation)” value is on record as “only the lowest concentration reduced MDA significantly”. Moreover, the “MDA formation by UVB vs cells not exposed to UVB” value in the assay with HaCaT cells [1] (lowest concentration, 4-h pre-treatment, cell line not given) is recorded as “circumvent MDA formation by UVB to below levels observed in cells not exposed to UVB”. Also, the “ATP vs control cell levels” value in the assay on HaCaT cells [2] is recorded as “maintain ATP above control cell levels”. Besides, the “caspase 3/7 activation” value with HaCaT cells [3] and in the assay on SK-MEL-1 cells [4] was “inhibited the activation of executioner caspases in a dose-dependent manner” in each case. In addition, the 50% inhibitory concentration (IC50) with HaCaT cells [5] (No UV, pre-treatment 4 h) was found to be 117 µg/mL (≈ 269 µM); in the assay with HaCaT cells [5] (No UV, pre-treatment 24 h), 105 µg/mL (≈ 242 µM); in the assay with HaCaT cells [5] (setting [11]) it was 266 µg/mL (≈ 612 µM); in the assay on HaCaT cells [5] (setting [12]), 282 µg/mL (≈ 649 µM); with SK-MEL-1 cells [6] (setting [13]) it was 330 µg/mL (≈ 759 µM); in the assay on SK-MEL-1 cells [6] (setting [14]) it was 124 µg/mL (≈ 285 µM). The IC50 came out at 248 µg/mL (≈ 572 µM) in the assay on SK-MEL-1 cells [6] (setting [15]) and 143 µg/mL (≈ 328 µM) in the assay on SK-MEL-1 cells [6] (setting [16]).

Consider `O=C(CCc1ccc(O)c(O)c1)c1c(O)cc(O)c(C2OC(CO)C(O)C(O)C2O)c1O` (stereo not drawn) [Compound 2, aspalathin], for which the “MDA levels (lipid peroxidation)” value is “significant (p < 0.05) reduction in MDA levels at all tested concentrations” in the assay on HaCaT cells [1] (24-h pre-treatment, after UVB exposure) and “significant (p < 0.05) reduction in MDA levels at all tested concentrations” in the assay on SK-MEL-1 cells [8]. In the assay with SK-MEL-1 cells [7], the “ATP in UVB irradiated vs non-UVB irradiated cells” value is listed as “significantly increase ATP to above levels observed in non-UVB irradiated cells”. For the same compound, the “caspase 3/7 activation” value with HaCaT cells [3] and in the assay on SK-MEL-1 cells [4] was “inhibited the activation of executioner caspases in a dose-dependent manner” in each case. Moreover, the half-inhibitory concentration (IC50) was determined as 209 µg/mL (≈ 462 µM) in the assay on HaCaT cells [5] (No UV, pre-treatment 4 h); 122 µg/mL (≈ 270 µM) with HaCaT cells [5] (No UV, pre-treatment 24 h); 399 µg/mL (≈ 882 µM) in the assay on HaCaT cells [5] (setting [11]); 145 µg/mL (≈ 321 µM) with HaCaT cells [5] (setting [12]); 93.6 µg/mL (≈ 207 µM) in the assay on SK-MEL-1 cells [6] (setting [13]); 66.4 µg/mL (≈ 147 µM) in the assay on SK-MEL-1 cells [6] (setting [14]). Also, the results for the IC50 in the assay with SK-MEL-1 cells [6] (setting [15]) and in the assay on SK-MEL-1 cells [6] (setting [16]) were 72.2 µg/mL (≈ 160 µM) and 70 µg/mL (≈ 155 µM), respectively. Moreover, the GSH content entry in the assay with HaCaT cells [9] (pre-treatment 4 h, UVB exposed and non-exposed cells) is listed as “only active at the lowest concentration tested”. Moreover, the GSH levels entry with HaCaT cells [9] (pre-treatment 24 h) is “only active at the lowest concentration tested”. The “GSH levels, resistance to UVB irradiation” value in the assay on SK-MEL-1 cells [10] is on record as “improved GSH levels”.

`O=C(CCc1ccc(O)cc1)c1c(O)cc(O)c(C2OC(CO)C(O)C(O)C2O)c1O` (stereo not drawn) [Compound 3, nothofagin]: the “ATP in UVB irradiated vs non-irradiated cells” value in the assay on HaCaT cells [2] (100 µg/mL) is recorded as “increase ATP in UVB irradiated cells to above levels observed in non-irradiated cells”. For the same compound, the “ATP vs control cell levels” value in the assay on HaCaT cells [2] is given as “maintain ATP above control cell levels”. The “ATP in UVB irradiated vs non-UVB irradiated cells” value in the assay with SK-MEL-1 cells [7] is reported as “significantly increase ATP to above levels observed in non-UVB irradiated cells”. In addition, the “caspase 3/7 activation” value in the assay with HaCaT cells [3] and with SK-MEL-1 cells [4] was “inhibited the activation of executioner caspases in a dose-dependent manner” in each case. The IC50 is 144 µg/mL (≈ 330 µM) in the assay on HaCaT cells [5] (No UV, pre-treatment 4 h); 123 µg/mL (≈ 282 µM) with HaCaT cells [5] (No UV, pre-treatment 24 h); 196 µg/mL (≈ 450 µM) in the assay with HaCaT cells [5] (setting [11]); 164 µg/mL (≈ 376 µM) in the assay on HaCaT cells [5] (setting [12]); 208 µg/mL (≈ 477 µM) in the assay on SK-MEL-1 cells [6] (setting [13]); 210 µg/mL (≈ 482 µM) in the assay with SK-MEL-1 cells [6] (setting [14]). The IC50 was 119 µg/mL (≈ 273 µM) in the assay with SK-MEL-1 cells [6] (setting [15]) and 123 µg/mL (≈ 282 µM) in the assay with SK-MEL-1 cells [6] (setting [16]).
